Values after ≈ are worked out from the molar mass of the structure shown. Where a SMILES comes first, the peptide text is derived from it. [ ]: non-standard residue; d: D form. The star is where a group is joined. Phe(4-tBu) = CC(C)(C)c1ccc(C[C@H](N)C(=O)O)cc1; Bip = N[C@@H](Cc1ccc(-c2ccccc2)cc1)C(=O)O; tBuAla = CC(C)(C)C[C@H](N)C(=O)O; Cha = N[C@@H](CC1CCCCC1)C(=O)O; OBn = c1ccc(CO*)cc1
Experiments:
[1] = system: Escherichia coli ATCC 25922; experiment: microbe, parasite or virus in culture; details: ATCC25922, read-out: MIC E. coli
[2] = system: Staphylococcus aureus ATCC 25923; experiment: microbe, parasite or virus in culture; details: ATCC25923, read-out: MIC S. aureus
[3] = system: MRSE ATCC 27626; details: ATCC 27626
[4] = system: fresh human red blood cells; assay type: cell-based
Protocol: The hemolytic activities of the peptides were determined using fresh human red blood cells. 8 ml blood was taken from a healthy person. 4 ml blood was transferred to a polycarbonate tube containing heparin to a final concentration of 10 U/ml, and the remaining 4 ml blood was transferred to a glass tube containing EDTA with final concentration of 15% EDTA. The erythrocytes were isolated from heparin-treated blood by centrifugation in 1500 rpm for 10 min and washed three times with phosphate-buffered saline (PBS) to remove plasma and buffy coat. The cell pellet was resuspended in PBS to make the final volume of 4 ml. The peptide was diluted to a concentration of 2 mg/ml and 0.1 mg/ml. The peptide was further diluted to the concentrations as stated in Table 15. For each tube PBS was added first, then RBCs and peptide solutions. The hematocrit in the blood treated with EDTA was determined after 30 min with Sysmex K-1000, and the resuspended RBCS were diluted into 10% hematocrit. RBCs in PBS (1%) with and without peptides (Table 15) were incubated in a shaker at 37° for 1 hour and then centrifuged at 4000 rpm for 5 min. The supernatant were carefully transferred to new polycarbonate tubes and the absorbance of the supernatant was measured at 540 nm. […]

[5] = system: Escherichia coli ATCC 25922; details: for MBC E. coli: ATCC 25922; for bacteriostatic or bactericidal: in respect of E. coli, high MBC but low MIC indicates bacteriostatic
[6] = system: Staphylococcus aureus ATCC 25923; details: ATCC 25923
[7] = system: MRSA ATCC 33591; details: ATCC 33591
[8] = system: Staphylococcus aureus ATCC 25923; details: ATCC 25923; remark: listed apart in the source
[9] = system: P. aeruginosa
[10] = system: Escherichia coli ATCC 25922; details: ATCC 25922
[11] = system: E. coli; experiment: Electronmicrograph of treated bacteria; assay type: cell-based; details: FIG. 2
Text: FIG. 1 is an electronmicrograph of normal (untreated) E. coli, and
FIG. 2 is an electronmicrograph of E. coli treated with one of the peptides described herein, WRWRWR [SEQ ID NO:1].

MIC [1] | MIC [2] | MIC MRSE [3] | MIC MRSA [7] | MIC S. aureus [8] | MIC P. aerug. [9] | MIC E. coli [10] | Structure (SMILES) | haemolysis EC50 [4] | MBC E. coli [5] | bacteriostatic or bactericidal [5] | MBC S. aureus [6] | appearance of treated E. coli in electronmicrograph [11]
– | – | 5.0 µg/mL (≈ 10.7 µM) | 12.5 to 25 µg/mL | 25.0 µg/mL (≈ 53.5 µM) | 100.0 µg/mL (≈ 214 µM) | 200.0 µg/mL (≈ 428 µM) | CC(C)(C)c1ccc(C[C@H](N)C(=O)N[C@@H](CCCNC(=N)N)C(=O)OCc2ccccc2)cc1 [tBuFR-OBzl] (H-[Phe(4-tBu)]-Arg-OBn; N-terminus assumed) | – | – | – | – | –
– | – | 100.0 µg/mL (≈ 255 µM) | 150 to 200 µg/mL | 300.0 µg/mL (≈ 766 µM) | >300.0 µg/mL | >300.0 µg/mL | CC(C)(C)C[C@H](N)C(=O)N[C@@H](CCCNC(=N)N)C(=O)OCc1ccccc1 [tBuAR-OBzl] (H-[tBuAla]-Arg-OBn; N-terminus assumed) | – | – | – | – | –
– | – | 25.0 µg/mL (≈ 59.9 µM) | 25 to 37.5 µg/mL | 50 to 100 µg/mL | >300.0 µg/mL | 300.0 µg/mL (≈ 718 µM) | N=C(N)NCCC[C@H](NC(=O)[C@@H](N)CC1CCCCC1)C(=O)OCc1ccccc1 [ChxAR-OBzl] (H-[Cha]-Arg-OBn; N-terminus assumed) | – | – | – | – | –

Second part, the compound before the results:

Structure (SMILES) | MIC [1] | MIC [2] | MIC MRSE [3] | MIC MRSA [7] | MIC S. aureus [8] | MIC P. aerug. [9] | MIC E. coli [10] | haemolysis EC50 [4] | MBC E. coli [5] | bacteriostatic or bactericidal [5] | MBC S. aureus [6] | appearance of treated E. coli in electronmicrograph [11]
CC(C)(C)c1cc(C(C)(C)C)c2[nH]c(C(C)(C)C)c(C[C@H](N)C(=O)NCCN)c2c1 [H-Tbt-Dae-H] | 15 µg/mL (≈ 36.2 µM) | 15 µg/mL (≈ 36.2 µM) | – | – | – | – | – | – | – | – | – | –
COC(=O)[C@H](CCCNC(=N)N)NC(=O)[C@@H](N)Cc1c(C(C)(C)C)[nH]c2c(C(C)(C)C)cc(C(C)(C)C)cc12 [TbtR OMe, H-Tbt-Arg-OMe] | – | – | 4.0 µg/mL (≈ 7.37 µM) | 4.0 µg/mL (≈ 7.37 µM) | – | – | – | 360 µg/mL | 200 µg/mL (≈ 368 µM) | bacteriostatic | 10 (10) μg/ml | –
N=C(N)NCCC[C@H](NC(=O)[C@@H](N)Cc1ccc(-c2ccccc2)cc1)C(=O)OCc1ccccc1 [BipR-OBzl] (H-[Bip]-Arg-OBn; N-terminus assumed) | – | – | 5.0 µg/mL (≈ 10.3 µM) | 5.0 µg/mL (≈ 10.3 µM) | 5.0 µg/mL (≈ 10.3 µM) | 100.0 µg/mL (≈ 205 µM) | 150.0 µg/mL (≈ 308 µM) | – | – | – | – | –
COC(=O)[C@H](CCCNC(=N)N)NC(=O)[C@@H](N)Cc1ccc(C(C)(C)C)cc1 [tBuFR-OMe] (H-[Phe(4-tBu)]-Arg-OMe; N-terminus assumed) | – | – | 100.0 µg/mL (≈ 255 µM) | 100.0 µg/mL (≈ 255 µM) | >300.0 µg/mL | >300.0 µg/mL | >300.0 µg/mL | – | – | – | – | –
CC(C)(C)c1cc(C(C)(C)C)c2[nH]c(C(C)(C)C)c(C[C@H](N)C(=O)NCCCCN)c2c1 [H-Tbt-Dab-H] | 35 µg/mL (≈ 79.1 µM) | 35 µg/mL (≈ 79.1 µM) | – | – | – | – | – | – | – | – | – | –
N=C(N)NCCC[C@H](NC(=O)[C@H](Cc1c[nH]c2ccccc12)NC(=O)[C@H](CCCNC(=N)N)NC(=O)[C@H](Cc1c[nH]c2ccccc12)NC(=O)[C@H](CCCNC(=N)N)NC(=O)[C@@H](N)Cc1c[nH]c2ccccc12)C(N)=O [WRWRWR] (H-WRWRWR-NH2) | – | – | – | – | 7.5 µg/mL (≈ 7.18 µM) | – | 7.5 µg/mL (≈ 7.18 µM) | – | 15 µg/mL (≈ 14.4 µM) | – | 10 µg/mL (≈ 9.58 µM) | void of cytoplasmic matter and their cell membranes (as well as cell wall components) are destroyed
COC(=O)[C@H](CCCNC(=N)N)NC(=O)[C@H](Cc1c(C(C)(C)C)[nH]c2c(C(C)(C)C)cc(C(C)(C)C)cc12)NC(=O)[C@@H](N)CCCNC(=N)N [RTbtR OMe, H-Arg-Tbt-Arg-OMe] | – | – | – | – | 5 (5) μg/ml | – | 25 µg/mL (≈ 35.8 µM) | 720 µg/mL | 50 µg/mL (≈ 71.5 µM) | bactericidal | 5 (5) μg/ml | –
CC(C)(C)c1cc(C(C)(C)C)c2[nH]c(C(C)(C)C)c(C[C@H](N)C(=O)NCCCCCCN)c2c1 [H-Tbt-Dah-H] | 15 µg/mL (≈ 31.9 µM) | 15 µg/mL (≈ 31.9 µM) | – | – | – | – | – | – | – | – | – | –
